Literature values as cited in publication PMC8496750, “Identification of the organic anion transporting polypeptides responsible for the hepatic uptake of the major metabolite of epyrifenacil, S‐3100‐CA, in mice” (Pharmacology Research & Perspectives, 2021).

Test system: mitochondrial PPO
Design: method as in PMID 34908893
Details: cited from earlier work

Cn1c(C(F)(F)F)cc(=O)n(-c2cc(Oc3cccnc3OCC(=O)O)c(Cl)cc2F)c1=O [S‐3100‐CA]
PPO inhibitory activity (in words) (PPO inhibition study): comparable inhibitory activity to that of the parent epyrifenacil
Inhibitory activity against mitochondrial PPO, mice relative to humans (higher in mice than in humans): 10 times
